Laboratory results from patent US20230242526A1 (Zentaur Therapeutics International Limited, priority 2020, published 2023).

Key:
[1] = in vitro; conditions: human, microsomes, pH 7.4, t1/2 human
Description: (§1) Human liver microsomes (cat. No. 452161), mouse liver microsomes (cat. No. 452701), were purchased from Corning.
(§2) Samples were analyzed using LC-MS/MS using a SCIEX API 4000 mass spectrometer coupled with Agilent HPLC analytical system. After separation on a ZORBAX XDB-C18 column (5 μm, 50×2.1 mm, column No. 50-282) using an acetonitrile-water gradient system, peaks were analyzed by mass spectroscopy (MS) using ESI ionization in Q1 and Q3 scan mode.
(§3) The LC and MS are all controlled by Analyst software.
(§4) The liver microsomes were incubated with 1.0 μM of the testing compound at 37° C. The incubation mixture contained 100 mM PBS buffer (pH=7.4), 3 mM MgCl2 and 1 mM NADPH. The concentration of liver microsome in the incubation mixture was 0.5 mg/mL for testing compound, and 0.2 mg/mL for MDZ and the total volume is 0.2 mL. […] Aliquots were withdrawn at time points of 0 min, 5 min and 20 min for MDZ. The reactions were terminated by transferring the aliquots to a methanol solution containing the internal standard […] for analytical quantification. The quenched samples were analyzed by LC-MS/MS. The incubations were carried out in duplicates. The metabolic stability of the testing compounds by the liver microsomes of human and mice is expressed as elimination half-life (t1/2). The results are shown as the means of duplicate determinations±SD.

[2] = in vitro; conditions: mouse, microsomes, pH 7.4, t1/2 mouse
Description: as §1, §2, §3, §4

[3] = test system: HCC1806 s.c. xenografts; assay: HCC1806 s.c. breast cancer xenograft efficacy (tumor volume, relative tumor volume, tumor weight, TGI); type: in vivo, BALB/c nude mice; conditions: 30 mg/kg P.O. BID; for Tumor Growth Inhibition D3 / Tumor Growth Inhibition D7 / Tumor Growth Inhibition D10 / Tumor Growth Inhibition D14 / Tumor Growth Inhibition D17 / Tumor Growth Inhibition D21: vs control vehicle; for Tumor Growth Inhibition D3 / Tumor volume D3: day 3; for Tumor Growth Inhibition D7 / Tumor volume D7: day 7; for Tumor Growth Inhibition D10 / Tumor volume D10: day 10; for Tumor Growth Inhibition D14 / Tumor volume D14: day 14; for Tumor Growth Inhibition D17 / Tumor volume D17: day 17; for Tumor Growth Inhibition D21 / Tumor volume D21: day 21; for Tumor volume D0 / Tumor volume D3 / Tumor volume D7 / Tumor volume D10 / Tumor volume D14 / Tumor volume D17 / Tumor volume D21 / Tumor weight: group mean; for Tumor volume D0: day 0; for Tumor weight: end of the study (Day 21)
Description: The in vivo potency of anti-tumor activities of Comp. 4, Comp. 37, Comp. 5, Comp. 28, Comp. 163, and Comp. 164 have been evaluated on the growth of HCC1806 s.c. xenografts in BALB/c nude mice.
The testing compounds Comp. 4, Comp. 37, Comp. 5, Comp. 28, Comp. 163, and Comp. 164 were prepared according the synthetic routes set forth in the above Examples. The testing formulations for compounds Comp. 4, Comp. 37, Comp. 5, Comp. 28, Comp. 163, and Comp. 164 were prepared as liquid formulation in a liquid vehicle containing 0.1% Tween-80 (purchased form Sinopharm Chemical Reagent Co., Ltd, Lot No. 20190322), 0.5% methyl cellulose (purchased from SIGMA, Lot No. SLBR8963V) in water.
A total of 42+8 female BALB/c nude mice were ordered from Shanghai LC Laboratory Animal Co. Ltd. The animals were specific pathogen free and approximately 4-5 weeks old upon arrival at PharmaLegacy Laboratories.
HCC1806 cell cultures were maintained at 37° C. under 5% CO2 in RPMI-1640 medium supplemented with 10% FBS and were subsequently cultured within 10 passages before inoculated into the mice.
(§5) When the average tumor volume reached 80-120 mm^3, 42 tumor-bearing mice were randomized into 7 groups (6 mice per group) according to tumor volume. The grouping day was defined as Day 0. Treatment was applied immediately after grouping animals on the same day.
(§6) The body weight of the testing animals were measured twice a week after grouping. Tumor volumes by the length and width of the tumor were measured by electric calipers and the tumor volume (V) was calculated as follows: V=(length×width^2)/2. The individual relative tumor volume (RTV) was calculated as follows: RTV=Vt/V0, where Vt was the volume on each day, and V0 was the volume at the beginning of the treatment.
Tumors were collected at the end of the study (Day 21), the mice were sacrificed. Tumor was collected, weighed, photographed.
(§7) Results were expressed as mean±S.E.M. Comparisons between two groups were made by corresponding test, p<0.05 were considered to be significant.

[4] = Body weight in the HCC1806 xenograft study; type: in vivo, BALB/c nude mice; conditions: 30 mg/kg P.O. BID; for Body weight D0 / Body weight D3 / Body weight D7 / Body weight D10 / Body weight D14 / Body weight D17 / Body weight D21: group mean; for Body weight D0: day 0; for Body weight D3: day 3; for Body weight D7: day 7; for Body weight D10: day 10; for Body weight D14: day 14; for Body weight D17: day 17; for Body weight D21: day 21
Description: as §5, §6, §7

SMILES | half-life at 1 μM [1] | half-life at 1 μM [2] | Tumor Growth Inhibition D3 [3] | Tumor Growth Inhibition D7 [3] | Tumor Growth Inhibition D10 [3] | Tumor Growth Inhibition D14 [3] | Tumor Growth Inhibition D17 [3] | Tumor Growth Inhibition D21 [3] | Tumor volume D0 [3] | Tumor volume D3 [3] | Tumor volume D7 [3] | Tumor volume D10 [3] | Tumor volume D14 [3] | Tumor volume D17 [3] | Tumor volume D21 [3] | Tumor weight [3] | Body weight D0 [4] | Body weight D3 [4] | Body weight D7 [4] | Body weight D10 [4] | also measured
Cc1cc2cnc(NC3CCN(S(C)(=O)=O)CC3)nc2n([C@@H]2CCC[C@@]2(C)O)c1=O [Comp. 4, (−)-8-(2-hydroxy-2-methylcyclopentyl)-6-methyl-2-((1-(methylsulfonyl)piperidin-4-yl)amino)pyrido[2,3-d]pyrimidin-7(8H)-one, reference compound] | 7.7 h | 0.275 h | 30.25% | 23.11% | −1.66% | 6.35% | 9.13% | 6.55% | 112.95 mm^3 | 241.73 mm^3 | 506.86 mm^3 | 1030.80 mm^3 | 1374.19 mm^3 | 1757.63 mm^3 | 2149.25 mm^3 | 3.63 g | 18.11 g | 17.90 g | 18.56 g | 19.59 g | body weight compared with G1 vehicle [4]: significant higher on day 21; Body weight D14 [4]: 19.85 g; Body weight D17 [4]: 20.49 g; Body weight D21 [4]: 20.80 g
C[C@@]1(O)CCC[C@H]1n1c(=O)c(C(F)F)cc2cnc(NC3CCN(S(C)(=O)=O)CC3)nc21 [Comp. 5, (−)-6-(difluoromethyl)-8-((1R,2R)-2-hydroxy-2-methylcyclopentyl)-2-((1-(methylsulfonyl)piperidin-4-yl)amino)pyrido[2,3-d]pyrimidin-7(8H)-one, reference compound] | 33.3 h | 0.367 h | 37.46% | 42.30% | 39.66% | 42.80% | 43.13% | 44.1% | 109.77 mm^3 | 225.24 mm^3 | 405.37 mm^3 | 654.51 mm^3 | 880.11 mm^3 | 1139.14 mm^3 | 1327.79 mm^3 | 2.22 g | 18.43 g | 18.07 g | 18.12 g | 17.82 g | tumor volume compared with G1 vehicle on each day [3]: significant smaller tumor volume from day 7 to day 21; tumor weight at the end of the study, in words [3]: lighter tumor but no statistic significance; Body weight D14 [4]: 18.25 g; Body weight D17 [4]: 18.48 g; Body weight D21 [4]: 17.80 g
[2H]C(F)(F)c1cc2cnc(NC3CCN(S(C)(=O)=O)CC3)nc2n([C@@H]2CCC[C@@]2(C)O)c1=O [Comp. 28, (−)-6-(difluoromethyl-d)-8-((1R,2R)-2-hydroxy-2-methylcyclopentyl)-2-((1-(methylsulfonyl)piperidin-4-yl)amino)pyrido[2,3-d]pyrimidin-7(8H)-one] | 14.4 h | 3.03 h | 15.44% | 11.52% | 15.19% | 12.60% | 26.69% | 34.01% | 111.13 mm^3 | 267.25 mm^3 | 564.40 mm^3 | 876.82 mm^3 | 1288.11 mm^3 | 1438.12 mm^3 | 1549.07 mm^3 | 2.84 g | 17.93 g | 17.81 g | 17.78 g | 17.66 g | body weight compared with G1 vehicle [4]: significant lower on day 17; Body weight D14 [4]: 17.75 g; Body weight D17 [4]: 17.84 g; Body weight D21 [4]: 16.80 g
[2H]C([2H])([2H])c1cc2cnc(NC3CCN(S(C)(=O)=O)CC3)nc2n([C@@H]2CCC[C@@]2(C)O)c1=O [Comp. 37, (−)-8-((1R,2R)-2-hydroxy-2-methylcyclopentyl)-6-(methyl-d3)-2-((1-(methylsulfonyl)piperidin-4-yl)amino)pyrido[2,3-d]pyrimidin-7(8H)-one] | 28.9 h | 1.2 h | 42.52% | 49.20% | 46.10% | 44.43% | 48.73% | 46.8% | 109.89 mm^3 | 216.01 mm^3 | 370.15 mm^3 | 596.52 mm^3 | 858.29 mm^3 | 1037.86 mm^3 | 1269.08 mm^3 | 2.10 g | 18.25 g | 18.23 g | 18.10 g | 18.01 g | tumor volume compared with G1 vehicle on each day [3]: significant smaller tumor volume from day 3 to day 21; tumor weight at the end of the study, in words [3]: lighter tumor but no statistic significance; Body weight D14 [4]: 18.80 g; Body weight D17 [4]: 18.60 g; Body weight D21 [4]: 18.17 g
